From ChEMBL document CHEMBL4382200, “Discovery of Novel 7-Aryl 7-Deazapurine 3'-Deoxy-ribofuranosyl Nucleosides with Potent Activity against Trypanosoma cruzi” (J Med Chem, 2018)
Activity calls are given as the source filed them. The rule behind the calls is not given here.

Columns and labels:
[1] = Cytotoxicity against human MRC5 SV2 cells assessed as reduction in cell viability after 3 days resazurin-based fluorimetric assay; details: MRC-5 SV2, 72 h
[2] = system: Trypanosoma cruzi; experiment: Antiparasitic activity against Trypanosoma cruzi Tulahuen CL2 intracellular amastigotes expressing beta-galactosidase infected in human MRC5 SV2 cells after 7 days by chlorophenol red beta-D-galactopyranoside-based spectrophotometric analysis; format: functional, organism-based; details: Tulahuen CL2, MRC-5 SV2, 168 h
[3] = Therapeutic index, ratio EC50 for human MRC5 SV2 cells to EC50 for Trypanosoma cruzi Tulahuen CL2 intracellular amastigotes; format: toxicity, cell-based; details: read-out: Ratio EC50
[4] = system: Trypanosoma cruzi; experiment: (§1) Antiparasitic activity against Trypanosoma cruzi Y strain bloodstream trypomastigotes infected in Swiss Webster mouse assessed as protection against parasite-induced mortality at 25 mg/kg, po bid via gavage administered for 5 consecutive days starting from day 5 post infection measured at day 15 post infection; format: functional, organism-based
[5] = system: Trypanosoma cruzi; experiment: Trypanocidal activity against Trypanosoma cruzi Y strain bloodstream trypomastigotes isolated from infected Swiss mouse […] assessed as parasite death after 24 hrs by neubauer chamber based light microscopy; format: functional, organism-based
[6] = system: Trypanosoma cruzi; experiment: Trypanocidal activity against Trypanosoma cruzi Y strain intracellular amastigotes infected in mouse cardiac cells assessed as parasite death after 168 hrs by Giemsa-staining based assay; format: functional, organism-based
[7] = Cytotoxicity against Swiss mouse embryonic cardiomyocytes assessed as reduction in cell viability after 24 hrs by prestoblue-staining based colorimetry; details: Cardiac muscle cell
[8] = system: Trypanosoma cruzi; experiment: as §1, with “100” for “25”, “sid” for “bid”; format: functional, organism-based
[9] = system: Trypanosoma cruzi; experiment: Antiparasitic activity against Trypanosoma cruzi Y strain bloodstream trypomastigotes infected in Swiss Webster mouse at 100 mg/kg, po sid via gavage administered for 5 consecutive days starting from day 5 post infection followed by cyclophosphamide-induced immunosuppression on day 40 post infection for 4 consecutive days; format: functional, organism-based
[10] = system: Trypanosoma cruzi; experiment: Antiparasitic activity against Trypanosoma cruzi Y strain bloodstream trypomastigotes infected in Swiss Webster mouse assessed as decrease in parasitemia at 100 mg/kg, po sid via gavage administered for 5 consecutive days measured at day 8 post infection by direct microscopic counting; format: functional, organism-based

Row | SMILES | EC50 [1] [µM] | EC50 ([2]; read-out: EC50) [µM] | selectivity ratio [3] | also measured
1 | CC(C)c1ccc(-c2cn([C@@H]3O[C@H](CO)C[C@H]3O)c3ncnc(N)c23)cc1 | 24.9 | 8.48 | 2.9 | –
2 | Nc1ncnc2c1c(-c1ccccc1)cn2[C@@H]1O[C@H](CO)C[C@H]1O | 61.8 | 2.57 | 24 | –
3 | Nc1ncnc2c1c(-c1ccc(Cl)c(Cl)c1)cn2[C@@H]1O[C@H](CO)C[C@H]1O | 13.6 | 0.059 | 230 | –
4 | Nc1ncnc2c1c(-c1ccc3ccccc3c1)cn2[C@@H]1O[C@H](CO)C[C@H]1O | 5 | 0.72 | 7 | –
5 | Nc1ncnc2c1ncn2[C@@H]1O[C@H](CO)C[C@H]1O [CORDYCEPIN] | > 64 | 2.51 | > 25 | –
6 | O=C(Cn1ccnc1[N+](=O)[O-])NCc1ccccc1 [BENZNIDAZOLE] | – | – | – | Activity [4]: Active; EC50 [5]: 11.5 µM; EC50 [6]: 0.354 µM; EC50 [7]: > 400 µM; Activity [8]: Active; Activity [9]: inactive; EC50 [2]: 2.28 µM; Activity [10]: Active
7 | Nc1ncnc2c1c(-c1ccc(F)c(Cl)c1)cn2[C@@H]1O[C@H](CO)C[C@H]1O | 45.5 | 0.3 | 150 | –
8 | Nc1ncnc2c1c(-c1ccc(C(F)(F)F)cc1)cn2[C@@H]1O[C@H](CO)C[C@H]1O | 40 | 0.53 | 76 | –
9 | Cc1cc(-c2cn([C@@H]3O[C@H](CO)C[C@H]3O)c3ncnc(N)c23)ccc1Cl | 16.7 | 0.21 | 80 | –
10 | Nc1ncnc2c1c(-c1ccc(Cl)c(F)c1)cn2[C@@H]1O[C@H](CO)C[C@H]1O | 18.6 | 0.071 | 260 | –
11 | Nc1ncnc2c1c(C1CCCCC1)cn2[C@@H]1O[C@H](CO)C[C@H]1O | > 64 | 20.9 | > 3 | –
12 | Nc1ncnc2c1c(-c1ccc(F)cc1)cn2[C@@H]1O[C@H](CO)C[C@H]1O | > 64 | 0.64 | > 100 | –
13 | Nc1ncnc2c1c(-c1ccc(OC(F)(F)F)cc1)cn2[C@@H]1O[C@H](CO)C[C@H]1O | 40.4 | 1.39 | 29 | –
14 | Cc1ccc(-c2cn([C@@H]3O[C@H](CO)C[C@H]3O)c3ncnc(N)c23)cc1Cl | 17.8 | 0.27 | 66 | –
